In article PMC8123395, “Aggregation and Its Influence on the Bioactivities of a Novel Antimicrobial Peptide, Temporin-PF, and Its Analogues” (International Journal of Molecular Sciences, 2021):
No end group written: not given here.

Key:
MRSA biofilm = assay type: cell-based; conditions: biofilm, 24 h
Experimental: (§1) MBIC and MBEC assays were performed as previously described with minor modifications. For the MBIC assay, a suspension of broth diluted bacteria culture (5 × 10^5 CFU/mL) was incubated with the peptide solutions at 37 °C for 24 h. For MBEC assay, 100 μL inoculum culture was seeded to a 96-well-flat-bottom plate and incubated at 37 °C for 48 h to obtain the mature biofilm. Afterwards, the plate was washed by sterile phosphate-buffered saline (PBS; Sigma-Aldrich, Gillingham, UK) twice and treated with a series peptide solution at 37 °C for 24 h. Then, all the plates were washed with PBS and stained by 100 μL 0.1% crystal violet solution (Sigma-Aldrich, Gillingham, UK), and further dissolved by 30% acetic acid (Sigma-Aldrich, Gillingham, UK). The absorbance of each well was recorded by Synergy HT plate reader (Biotech, Minneapolis, MN, USA) at 595 nm.

S. aureus mature biofilm = assay type: cell-based; conditions: mature biofilm, 48 h
Experimental: as §1

MRSA mature biofilm = assay type: cell-based; conditions: mature biofilm, 48 h
Experimental: as §1

S. aureus biofilm = assay type: cell-based; conditions: biofilm, 24 h
Experimental: as §1

[1] = Circular dichroism, helix content by BeStSel; assay type: physicochemical; conditions: CD, room temperature, BeStSel analysis
Experimental: Figure 8 CD spectra of TPF and the analogs (50 μM) prepared in 10 mM NH4AC, 50% TFE/10 mM NH4AC, 3 mM DPPG/DPPE (88:12) SUVs, and 3 mM DPPC SUVs. The spectra were averaged over three consecutive scans, and the solvent CD signal was subtracted.
The determination of the secondary structure of peptides was conducted using a JASCO J-815 CD Spectropolarimeter (JASCO Inc., Tokyo, Japan) as described in the previous study. Then, 50 μM of each peptide sample was prepared in the aqueous 10 mM ammonium acetate (NH4Ac; Sigma-Aldrich, Gillingham, UK) buffer, 50% (v/v) 2,2,2-trifluoroethanol (TFE; Sigma-Aldrich, Gillingham, UK), and 3 mM DPPG:DPPE (88:12) and DPPC small unilamellar liposomes/vesicles (SUVs) that were used to mimic the bacterial and mammalian erythrocyte cell membranes, respectively. The liposome was hydrated in deionized water and then sonicated for 15 min with an interval 30 s in an ice bath for generating SUVs. Samples were loaded in a 1-mm thickness quartz cuvette and analyzed at room temperature with the following parameters: scan range of 190–250 nm, scanning speed of […], 1 nm bandwidth, and 0.5 nm data pitch. The spectra were obtained by averaging data from three scans. The CD spectra were analyzed by BeStSel (http://bestsel.elte.hu/index.php, accessed on 16 May 2020) for the determination of secondary structure content.

LPLIAGLFGKIF-NH2 [des-Phe1 TPF]
MBIC (MRSA biofilm): 32/32 µM | MBEC (S. aureus mature biofilm): 32 µM | MBEC (MRSA mature biofilm): 32/32 µM | MBIC (S. aureus biofilm): 16 µM | Helix Content % DPPC ([1]; 50 μM peptide in 3 mM DPPC SUVs (erythrocyte membrane mimic)): 16.4% | Helix Content % DPPG/DPPE ([1]; 50 μM peptide in 3 mM DPPG/DPPE (88:12) SUVs (bacterial membrane mimic)): 26.7% | Helix Content % 50% TFE ([1]; 50 μM peptide in 50% TFE/10 mM NH4AC, three scans averaged): 37.7%
